Residues, ends and D or L forms follow the SMILES beside them. *: point of attachment. Cbz = O=C(OCc1ccccc1)*; CH2F = FC*
Tests used:
RIPK1 = assay: ELISA of RIPK1 released in supernatant of L929 cells exposed to TNFα; type: cell-based, murine; settings: 20 μM, 2 h, then TNFα (25 ng/mL) 6 h
Experimental: FIG. 12. […] Results are shown as mean±SEM of six replicates.
L929 cells (LGC Standards, Molsheim, France), were cultured in Dulbecco's modified Eagle's medium (DMEM) (ThermoFisher, Massachusetts, USA) supplemented with 10% fetal bovine serum (Eurobio, Courtaboeuf, France), penicillin (100 IU/ml), streptomycin (0.1 mg/ml), and L-glutamine (0.03%) (ThermoFisher). […] AML-12 (alpha mouse liver-12) hepatocytes (LGC Standards) were cultured in DMEM/F12 Medium (ThermoFisher) supplemented with 10% fetal bovine serum (Eurobio), 10 μg/ml insulin, 5.5 μg/ml transferrin, 5 ng/ml selenium and 40 ng/ml dexamethasone (Sigma, Missouri, USA). AML-12 hepatocytes were stimulated with insulin (#I0516, 10 nM; Sigma) for 15 minutes.
Protein concentrations of human RIPK1 (SEE640Hu; Could-Clone Corp., Texas, USA), human MLKL (SER645Hu; Could-Clone Corp.) and murine RIPK1 (CSB-EL019735MO; Cusabio, Texas, USA) were determined by an ELISA kit according to the manufacturer's instructions.

[1] = test system: primary human hepatocytes; assay: Fat depletion in primary human hepatocytes with free fatty acid-induced steatosis; type: cell-based; settings: 20 μM, 24 h
Experimental: FIG. 7. RIPA-56 treatment induces fat depletion in primary human hepatocytes. Primary human hepatocytes were isolated from steatotic human livers of patients with NAFLD (n=5) (A-C) or from non-steatotic human livers and incubated with free fatty acids to induce steatosis or without (W/O) (n=5) (D-G), and treated with RIPA-56 (20 μM) or DMSO (vehicle) for 24 h. (A, D) Representative Oil Red-O and DAPI images; (B, E) Quantification of Oil Red-O staining normalized for the number of DAPI-stained nuclei; (C, F) Quantification of intracellular triglycerides normalized to protein content; (G) mRNA levels of CPT1A, MTTP and APOB100 were assessed by RT-qPCR, and shown relative to DMSO-treated hepatocytes. Results are shown as mean±SEM; n.s., not significant; *p<0.05; **p<0.01; scale bars, 100 μm. These findings are representative of five independent cell preparations.
FIG. 9. MLKL controls intrahepatic triglyceride content in hepatocytes. (A-D) Primary human hepatocytes were isolated from non-steatotic human livers and incubated with free fatty acids to induce steatosis, or without (W/O), and treated with necrosulfonamide (NSA) (20 μM) or DMSO (vehicle) for 24 h. (A) Representative Oil Red-O and DAPI images; (B) Quantification of Oil Red-O staining normalized for the number of DAPI-stained nuclei; (C) Quantification of intracellular triglycerides normalized to protein content. (D) mRNA levels of CPT1A, MTTP and APOB100 were assessed by RT-qPCR and shown relative to DMSO-treated hepatocytes; (E-H) AML-12 cells were knocked-out (KO) for MLKL and compared with control (CTL) cells, which underwent a similar CRISPR-Cas9 selection as KO cells; (E) Whole-cell lysates were extracted from CTL and MLKL-KO AML-12 cells and analyzed by Western blot using antibodies against MLKL, Tubulin and GAPDH; (F) Representative Oil Red-O and DAPI images; (G) Oil Red-O staining and (H) triglycerides quantification in fat-loaded cell lines. Results are shown as mean±SEM; n.s., not significant; *p<0.05; **p<0.01; ***p<0.001; scale bars, 100 μm. These experiments are representative of five independent cell preparations.
The liver fragment was initially perfused with a prewarmed (37° C.) calcium-free buffer supplemented with 5 mmol/L ethylene glycol tetra-acetic acid (Sigma) followed by perfusion with a prewarmed (37° C.) buffer containing 6 mmol/L calcium (CaCl2) and collagenase 0.05% ([…]) (Sigma). The liver fragment was then gently shaken to disperse liver cells in Hepatocyte Wash Medium (Life Technologies, Villebon-sur-Yvette, France). The resulting cell suspension was filtered through a gauze-lined funnel. Cells were then centrifuged at low speed. The supernatant, containing damaged or dead hepatocytes, non-parenchymal cells and debris were removed and pelleted hepatocytes were re-suspended in Hepatocyte Wash Medium. The count of viable cells was determined using trypan blue exclusion. Freshly isolated normal (steatosis <5%) or steatotic (>10%) hepatocytes were resuspended in Williams medium E (Life technologies) containing 10% fetal calf serum (Eurobio), penicillin (200 U/mL)-streptomycin (200 μg/mL), Fungizone (2.5 μg/mL) and insulin (0.1 U/mL) (Life Technologies). The cells were seeded in 12-, 24- and 96-well plates pre-coated with type I collagen at a density of 0.78×10^6, 0.4×10^6 and 0.5×10^5 viable cells/well, respectively, and incubated overnight at 37° C. in a 5% CO2 atmosphere. The medium was replaced with fresh complete hepatocyte medium supplemented with 1 μmol/L hydrocortisone hemisuccinate (Laboratoires SERB, Paris, France) and hepatocytes were maintained in this medium. To induce steatosis in normal hepatocytes, PHH were incubated with free fatty acid (FFA) mixtures of oleic acid and palmitic acid in a molar ratio 2:1 (500:250 μmol/L), respectively, and with 1% fatty-acid-free BSA for 48 hours.
Total RNA was purified from liver tissue using TRIzol reagent (ThermoFisher) and a RNeasy Mini kit (Qiagen, Courtaboeuf, France). […]

COC(=O)C[C@H](NC(=O)[C@H](C)NC(=O)[C@@H](NC(=O)OCc1ccccc1)C(C)C)C(=O)CF [Zvad] (Cbz-Val-Ala-Asp(OMe)-CH2F)
RIPK1 in the supernatant (RIPK1): released

COc1nccnc1NS(=O)(=O)c1ccc(NC(=O)/C=C/c2ccc([N+](=O)[O-])s2)cc1 [necrosulfonamide, reference compound]
intracellular lipid droplets (Oil Red-O) ([1]; FFA-induced steatosis): significantly decreased | intracellular triglyceride content ([1]; FFA-induced steatosis): significantly decreased | CPT1A expression (mRNA) ([1]; RT-qPCR): upregulated

necrostatin-1 [Nec-1]
RIPK1 in the supernatant (RIPK1): undetectable

Reference: patent publication US12653796B2, “Compounds for use (in particular RIPA-56) in the prevention and/or treatment of non-alcoholic fatty liver disease” (SORBONNE UNIVERSITE, priority 2019, dated 2026)
